The subject of the experiment is biofilm extracellular matrix. Description: dose dependent extracellular matrix degradation of the enzymes mutanase and dextranase (FIG. 4). To be noted: combination of mutanase and dextranase. The class given is cell-based. The source says: FIG. 4 depicts the dose dependent extracellular matrix degradation of the enzymes mutanase and dextranase.
FIG. 4 depicts the dose dependent extracellular matrix degradation of the enzymes mutanase and dextranase in accordance with an embodiment of disclosed subject matter. While the catalytic function of iron oxide nanoparticles degrades the biofilm matrix more slowly than it substantially eradicates the bacteria, the rate of degradation can be enhanced with enzymes including mutanase and dextranase. A combination of 1.75 U mutanase and 8.75 U dextranase achieves maximal efficacy for extracellular matrix degradation.

Turning to dextranase, the “amount that achieves maximal efficacy for extracellular matrix degradation” value is 8.75 U. The same measure for mutanase: 1.75 U.
